According to patent US6063562A (priority 1995, dated 2000):
pIC50: −log10 of the molar value. Read-outs that look alike come from different tables or passages of the source.

What was measured:
wild-type HIV-1 = conditions: read-out: IC50 (50% inhibitory concentration), MT-4 cells, cited from earlier work
[1] = test system: AZT-resistant strain derived from wild-type HIV-1; conditions: read-out: IC50 (50% inhibitory concentration); second passage of the AZT-resistant progeny, MT-4 cells; cited from earlier work
[2] = target: HIV-1 protease, wild type, expressed as part of truncated HIV-1 polyprotein (Human immunodeficiency virus type 1 group M subtype B, UniProt P04585); assay type: cell-based
Description: Plasmid pART-2 was digested with Bgl II and Eco RI to obtain a nucleotide sequence coding for a portion of the HIV-1 polyprotein (i.e., the HIV-1 protease protein, the HIV-1 reverse transcriptase protein and a portion of the HIV-1 integrase protein). The isolated 2.3 kb fragment was then inserted into the pTrcHisC plasmid (obtained from Invitrogen, San Diego, Calif.), which had previously been digested with the same restriction enzymes, to yield the plasmid pL124.23. The pL124.23 plasmid contains upstream sequences coding for a series of six histidine residues fused to a gene 10 segment, all of which are in frame with the inserted fragment. An enterokinase cleavage recognition site is also located between gene 10 and the truncated polyprotein. The inserted sequences, as well as the described upstream sequences are all under control of a T7 promoter. The T7 polymerase in the host cell (Top 10, Invitrogen) is inducible with IPTG.

SMILES | pIC50 (wild-type HIV-1; fourth passage of the wild-type progeny) | pIC50 (wild-type HIV-1; passage 6 virus, tested at higher compound concentrations) | pIC50 [1] | processing of the polyprotein by HIV protease [2]
Nc1nc(=O)n([C@@H]2CS[C@H](CO)O2)cc1F [FTC] | < 4.30 | < 3.60 | < 4.30 | 
CC(C)(C)NC(=O)[C@@H]1CN(Cc2cccnc2)CCN1C[C@@H](O)C[C@@H](Cc1ccccc1)C(=O)N[C@H]1c2ccccc2C[C@H]1O [L-735,524] |  |  |  | did not allow processing of the polyprotein
